PubChem BioAssay (NCI)
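Abbreviation: GI50, concentration required for 50% inhibition of growth. TGI: concentration producing complete growth inhibition.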

Tests used:
Experiment in all cases: growth of human tumour cells (NCI), 384-well format; in the data active = GI50 below about 0.43 µM; inactive = the rest
NCI-H460 NSCLC = system: NCI-H460 NSCLC
SK-OV-3 ovarian = system: SK-OV-3 ovarian
RPMI-8226 leukemia = system: RPMI-8226 leukemia
DU-145 prostate = system: DU-145 prostate
MDA-MB-435 melanoma = system: MDA-MB-435 melanoma
HOP-62 NSCLC = system: HOP-62 NSCLC
PC-3 prostate = system: PC-3 prostate
COLO 205 colon = system: COLO 205 colon
BT-549 breast = system: BT-549 breast
OVCAR-4 ovarian = system: OVCAR-4 ovarian
RXF 393 renal = system: RXF 393 renal
SF-295 CNS = system: SF-295 CNS
OVCAR-3 ovarian = system: OVCAR-3 ovarian
HCT-116 colon = system: HCT-116 colon
MDA-MB-468 breast = system: MDA-MB-468 breast
A498 renal = system: A498 renal
HS 578T breast = system: HS 578T breast
NCI-H322M lung = system: NCI-H322M lung
HT29 colon = system: HT29 colon
T-47D breast = system: T-47D breast
ACHN renal = system: ACHN renal
SR leukemia = system: SR leukemia
HOP-92 NSCLC = system: HOP-92 NSCLC
SF-268 CNS = system: SF-268 CNS
HCT-15 colon = system: HCT-15 colon
M14 melanoma = system: M14 melanoma
HL-60(TB) leukemia = system: HL-60(TB) leukemia
SNB-75 CNS = system: SNB-75 CNS
OVCAR-5 ovarian = system: OVCAR-5 ovarian
MCF7 breast = system: MCF7 breast
SN12C renal = system: SN12C renal
NCI/ADR-RES ovarian = system: NCI/ADR-RES ovarian
U251 glioblastoma = system: U251 glioblastoma
TK-10 renal = system: TK-10 renal
UACC-62 melanoma = system: UACC-62 melanoma
OVCAR-8 ovarian = system: OVCAR-8 ovarian
EKVX NSCLC = system: EKVX NSCLC
NCI-H522 lung = system: NCI-H522 lung
CAKI-1 renal = system: CAKI-1 renal
A549 NSCLC = system: A549 NSCLC
IGROV1 ovarian = system: IGROV1 ovarian
KM12 colon = system: KM12 colon
NCI-H23 lung = system: NCI-H23 lung
HCC-2998 colon = system: HCC-2998 colon
UACC-257 melanoma = system: UACC-257 melanoma
SK-MEL-5 melanoma = system: SK-MEL-5 melanoma
LOX IMVI melanoma = system: LOX IMVI melanoma
SK-MEL-28 melanoma = system: SK-MEL-28 melanoma
MDA-MB-231 breast = system: MDA-MB-231 breast
MALME-3M melanoma = system: MALME-3M melanoma
SNB-19 CNS = system: SNB-19 CNS
MOLT-4 leukemia = system: MOLT-4 leukemia
SF-539 CNS = system: SF-539 CNS
NCI-H226 lung = system: NCI-H226 lung
786-0 renal = system: 786-0 renal
SW-620 colon = system: SW-620 colon
UO-31 renal = system: UO-31 renal

CC(C)(C)Cn1c(N)nc2ccc(-c3[nH]c(C(C)(C)C)nc3-c3ccc(F)cc3)nc21
23.7 µM: TGI (HOP-62 NSCLC)
13.5 µM: TGI (SR leukemia)
19.5 µM: TGI (MOLT-4 leukemia)
18.9 µM: TGI (HCT-116 colon) | TGI (NCI-H522 lung)
21.6 µM: TGI (DU-145 prostate) | TGI (T-47D breast)
24.4 µM: TGI (SF-539 CNS)
22 µM: TGI (HOP-92 NSCLC)
4.75 µM: TGI (HCT-15 colon)
25.8 µM: TGI (NCI-H226 lung)
29.5 µM: TGI (COLO 205 colon)
23.9 µM: TGI (NCI-H23 lung)
21.5 µM: TGI (OVCAR-3 ovarian)
22.1 µM: TGI (PC-3 prostate)
6.39 µM: TGI (HT29 colon)
inactive: GI50 (NCI-H460 NSCLC) 4.3 µM | GI50 (SK-OV-3 ovarian) 8.25 µM | GI50 (RPMI-8226 leukemia) 2 µM | GI50 (DU-145 prostate) 9.61 µM | GI50 (MDA-MB-435 melanoma) 13.4 µM | GI50 (HOP-62 NSCLC) 11.4 µM | GI50 (PC-3 prostate) 10.2 µM | GI50 (COLO 205 colon) 16 µM | GI50 (BT-549 breast) 12 µM | GI50 (OVCAR-4 ovarian) 7.46 µM | GI50 (RXF 393 renal) 12.9 µM | GI50 (SF-295 CNS) 10.6 µM | GI50 (OVCAR-3 ovarian) 9.69 µM | GI50 (HCT-116 colon) 6.38 µM | GI50 (MDA-MB-468 breast) 2.93 µM | GI50 (A498 renal) 4.54 µM | GI50 (HS 578T breast) 11.4 µM | GI50 (NCI-H322M lung) 4.97 µM | GI50 (HT29 colon) 2.33 µM | GI50 (T-47D breast) 9.88 µM | GI50 (ACHN renal) 1.9 µM | GI50 (SR leukemia) 2.63 µM | GI50 (HOP-92 NSCLC) 10.2 µM | GI50 (SF-268 CNS) 11.8 µM | GI50 (HCT-15 colon) 2.16 µM | GI50 (M14 melanoma) 12.9 µM | GI50 (HL-60(TB) leukemia) 3.78 µM | GI50 (SNB-75 CNS) 13.5 µM | GI50 (OVCAR-5 ovarian) 3.37 µM | GI50 (MCF7 breast) 6.64 µM | GI50 (SN12C renal) 1.8 µM | GI50 (NCI/ADR-RES ovarian) 3.76 µM | GI50 (U251 glioblastoma) 6.13 µM | GI50 (TK-10 renal) 3.02 µM | GI50 (UACC-62 melanoma) 10.7 µM | GI50 (OVCAR-8 ovarian) 9.78 µM | GI50 (EKVX NSCLC) 2.74 µM | GI50 (NCI-H522 lung) 5.97 µM | GI50 (CAKI-1 renal) 6.13 µM | GI50 (A549 NSCLC) 9.53 µM | GI50 (IGROV1 ovarian) 2.57 µM | GI50 (KM12 colon) 5.24 µM | GI50 (NCI-H23 lung) 11.5 µM | GI50 (HCC-2998 colon) 3.6 µM | GI50 (UACC-257 melanoma) 2.92 µM | GI50 (SK-MEL-5 melanoma) 3.7 µM | GI50 (LOX IMVI melanoma) 13.5 µM | GI50 (SK-MEL-28 melanoma) 12.6 µM | GI50 (MDA-MB-231 breast) 11.7 µM | GI50 (MALME-3M melanoma) 4.26 µM | GI50 (SNB-19 CNS) 11.9 µM | GI50 (MOLT-4 leukemia) 7.35 µM | GI50 (SF-539 CNS) 11.9 µM | GI50 (NCI-H226 lung) 13.1 µM
24.3 µM: TGI (SF-268 CNS) | TGI (SNB-19 CNS)
26.3 µM: TGI (MDA-MB-435 melanoma) | TGI (LOX IMVI melanoma)
25.6 µM: TGI (RXF 393 renal) | TGI (M14 melanoma)
23.6 µM: TGI (HS 578T breast)
12.4 µM: TGI (IGROV1 ovarian)
22.6 µM: TGI (SF-295 CNS)
15.4 µM: TGI (EKVX NSCLC)
22.7 µM: TGI (UACC-62 melanoma)
25.3 µM: TGI (SK-MEL-28 melanoma)
20.3 µM: TGI (OVCAR-4 ovarian)
14.4 µM: TGI (HCC-2998 colon)
19.9 µM: TGI (CAKI-1 renal)
13 µM: TGI (OVCAR-5 ovarian)
12.3 µM: TGI (ACHN renal)
15.5 µM: TGI (MDA-MB-468 breast)
24.1 µM: TGI (MDA-MB-231 breast)
21.7 µM: TGI (A549 NSCLC)
16.7 µM: TGI (MALME-3M melanoma)
21.8 µM: TGI (OVCAR-8 ovarian)
10.4 µM: TGI (HL-60(TB) leukemia)
14.6 µM: TGI (TK-10 renal)
5.4 µM: TGI (RPMI-8226 leukemia)
17.4 µM: TGI (NCI/ADR-RES ovarian) | TGI (KM12 colon)
17.7 µM: TGI (NCI-H322M lung)
26.5 µM: TGI (SNB-75 CNS)
18.6 µM: TGI (A498 renal) | TGI (U251 glioblastoma)
21 µM: TGI (SK-OV-3 ovarian)
24.5 µM: TGI (BT-549 breast)
16.2 µM: TGI (NCI-H460 NSCLC)
15.7 µM: TGI (SK-MEL-5 melanoma)
19.3 µM: TGI (MCF7 breast)
14.7 µM: TGI (SN12C renal)
7.71 µM: TGI (UACC-257 melanoma)

Cn1cnc2c(F)c(Nc3ccc(Br)cc3Cl)c(C(=O)NOCCO)cc21
0.122 µM: TGI (COLO 205 colon)
38.7 µM: TGI (NCI-H226 lung)
0.616 µM: TGI (SK-MEL-5 melanoma)
12.2 µM: TGI (HCT-116 colon)
52.1 µM: TGI (BT-549 breast)
0.311 µM: TGI (UACC-62 melanoma)
12.3 µM: TGI (RXF 393 renal)
0.278 µM: TGI (UACC-257 melanoma)
17.3 µM: TGI (MDA-MB-231 breast)
47 µM: TGI (IGROV1 ovarian)
13.5 µM: TGI (LOX IMVI melanoma)
> 100 µM: TGI (NCI-H460 NSCLC) | TGI (SK-OV-3 ovarian) | TGI (RPMI-8226 leukemia) | TGI (DU-145 prostate) | TGI (MDA-MB-435 melanoma) | TGI (HOP-62 NSCLC) | TGI (PC-3 prostate) | TGI (OVCAR-4 ovarian) | TGI (SF-295 CNS) | TGI (OVCAR-3 ovarian) | TGI (MDA-MB-468 breast) | TGI (786-0 renal) | TGI (HS 578T breast) | TGI (NCI-H322M lung) | TGI (HT29 colon) | TGI (T-47D breast) | TGI (ACHN renal) | TGI (SR leukemia) | TGI (SW-620 colon) | TGI (SF-268 CNS) | TGI (HCT-15 colon) | TGI (OVCAR-5 ovarian) | TGI (MCF7 breast) | TGI (SN12C renal) | TGI (NCI/ADR-RES ovarian) | TGI (U251 glioblastoma) | TGI (TK-10 renal) | TGI (OVCAR-8 ovarian) | TGI (EKVX NSCLC) | TGI (NCI-H522 lung) | TGI (CAKI-1 renal) | TGI (A549 NSCLC) | TGI (KM12 colon) | TGI (SNB-19 CNS) | TGI (MOLT-4 leukemia)
0.147 µM: TGI (SK-MEL-28 melanoma)
1.3 µM: TGI (HCC-2998 colon)
56.5 µM: TGI (SF-539 CNS)
14.5 µM: TGI (HOP-92 NSCLC)
0.0363 µM: TGI (MALME-3M melanoma)
0.144 µM: TGI (M14 melanoma)
35.4 µM: TGI (A498 renal)
85.9 µM: TGI (SNB-75 CNS)
active: GI50 (MDA-MB-435 melanoma) 0.266 µM | GI50 (COLO 205 colon) 0.02 µM | GI50 (RXF 393 renal) 0.101 µM | GI50 (NCI-H322M lung) 0.363 µM | GI50 (HT29 colon) 0.0948 µM | GI50 (SW-620 colon) 0.039 µM | GI50 (M14 melanoma) 0.0211 µM | GI50 (OVCAR-5 ovarian) 0.205 µM | GI50 (UACC-62 melanoma) 0.0318 µM | GI50 (NCI-H23 lung) 0.26 µM | GI50 (HCC-2998 colon) 0.0284 µM | GI50 (UACC-257 melanoma) 0.0456 µM | GI50 (SK-MEL-5 melanoma) 0.0449 µM | GI50 (LOX IMVI melanoma) 0.425 µM | GI50 (SK-MEL-28 melanoma) 0.0217 µM | GI50 (MALME-3M melanoma) 0.0114 µM | GI50 (NCI-H226 lung) 0.267 µM
inactive: GI50 (NCI-H460 NSCLC) > 100 µM | GI50 (SK-OV-3 ovarian) > 100 µM | GI50 (RPMI-8226 leukemia) 21.1 µM | GI50 (DU-145 prostate) 42.4 µM | GI50 (HOP-62 NSCLC) 1.22 µM | GI50 (PC-3 prostate) > 100 µM | GI50 (BT-549 breast) 6.05 µM | GI50 (OVCAR-4 ovarian) 14.4 µM | GI50 (SF-295 CNS) > 100 µM | GI50 (OVCAR-3 ovarian) 44.9 µM | GI50 (HCT-116 colon) 0.553 µM | GI50 (MDA-MB-468 breast) 55.3 µM | GI50 (786-0 renal) 12.2 µM | GI50 (A498 renal) 3.46 µM | GI50 (HS 578T breast) 17.5 µM | GI50 (T-47D breast) 84.8 µM | GI50 (ACHN renal) 6.87 µM | GI50 (SR leukemia) 47 µM | GI50 (HOP-92 NSCLC) 2.08 µM | GI50 (SF-268 CNS) > 100 µM | GI50 (HCT-15 colon) 21.5 µM | GI50 (SNB-75 CNS) 3.12 µM | GI50 (UO-31 renal) 3.21 µM | GI50 (MCF7 breast) > 100 µM | GI50 (SN12C renal) 7.8 µM | GI50 (NCI/ADR-RES ovarian) > 100 µM | GI50 (U251 glioblastoma) 19.5 µM | GI50 (TK-10 renal) 42.4 µM | GI50 (OVCAR-8 ovarian) 67.4 µM | GI50 (EKVX NSCLC) 18.6 µM | GI50 (NCI-H522 lung) 42.8 µM | GI50 (CAKI-1 renal) 1.73 µM | GI50 (A549 NSCLC) 0.58 µM | GI50 (IGROV1 ovarian) 0.914 µM | GI50 (KM12 colon) 0.481 µM | GI50 (MDA-MB-231 breast) 1.06 µM | GI50 (SNB-19 CNS) 51.5 µM | GI50 (MOLT-4 leukemia) 49 µM | GI50 (SF-539 CNS) 12.2 µM
9.91 µM: TGI (NCI-H23 lung)
21.2 µM: TGI (UO-31 renal)
